US20260315492A1, “5,6-FUSED BICYCLIC AMIDES AND COMPOSITIONS FOR USE AS 15-PROSTAGLANDIN DEHYDROGENASE MODULATORS” (AMGEN INC., priority 2023, published 2026)

Target: T1, human recombinant 15-PGDH (Homo sapiens, UniProt P15428)
T1 sequence (P15428 1-266): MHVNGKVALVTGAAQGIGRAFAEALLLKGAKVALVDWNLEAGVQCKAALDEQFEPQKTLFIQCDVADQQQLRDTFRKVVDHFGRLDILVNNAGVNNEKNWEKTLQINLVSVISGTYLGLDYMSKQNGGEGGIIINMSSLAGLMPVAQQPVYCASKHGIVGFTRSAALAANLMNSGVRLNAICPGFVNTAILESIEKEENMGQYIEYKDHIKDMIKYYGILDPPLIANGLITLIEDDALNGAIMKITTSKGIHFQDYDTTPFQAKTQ
Experiment: Inhibition of recombinant 15-PGDH enzymatic activity (NADH quantification after addition of PGE2 and NAD+)
Assay type: biochemical
Conditions: recombinant 15-PGDH; 15 min pre-incubation, 60-minute reaction, room temperature, pH 7.5; PGE2 and NAD+; read-out: PGDH-Lumi IC50
Experimental: The compound dose-response of its inhibition of 15-PGDH activity was determined in human recombinant 15-PGDH enzymatical assays. These assays measured 15-PGDH enzymatic activity by quantifying the amount of NADH produced during a 60-minute reaction initiated by the addition of PGE2 and NAD+. Under the conditions of these experiments, the increase of NADH signal upon oxidation of PGE2 and reduction of NAD+ was linearly proportional to 15-PGDH enzymatic activity. The recombinant human, mouse, rat and dog 15-PGDH enzymatic assays were performed in a 25 μL volume of reaction buffer containing 50 mM Tris, pH 7.5, 0.01% Tween-20 and 100 μM DTT in a 384-well microtiter plate. In concentration-response experiments with tested compounds, 22 concentrations from 2-fold serial dilutions in DMSO were pre-incubated with 15-PGDH for 15 minutes at room temperature. Then, PGE2 and ß-NAD+ were added to initiate the 15-PGDH reaction. After 60 minutes at room temperature, the reaction was quenched and NADH signal was measured using a microtiter plate reader.
The following data (Table 11-1) provides the IC50 of each compound for inhibiting enzymatic activity of recombinant 15-PGDH in the assay described above.

Row | SMILES | IC50
1 | Cn1cc2cc(-c3ccc4cc(C(=O)N5CCOCC56CC6)sc4n3)cnc2n1 [Compound B45, (6-(2-methyl-2H-pyrazolo[3,4-b]pyridin-5-yl)thieno[2,3-b]pyridin-2-yl)(7-oxa-4-azaspiro[2.5]octan-4-yl)methanone] | 46.1 nM
2 | Cn1cc2cc(-c3ccc4cc(C(=O)N5CCOC(C(F)(F)F)C5)sc4n3)cnc2n1 (stereo not drawn) [Compound B46, (6-(2-methyl-2H-pyrazolo[3,4-b]pyridin-5-yl)thieno[2,3-b]pyridin-2-yl)(2-(trifluoromethyl)-4-morpholinyl)methanone] | 2.6 nM
3 | Cn1cc2cc(-c3ccc4cc(C(=O)N5CCOC6(CC6)C5)sc4n3)cnc2n1 [Compound B47, (6-(2-methyl-2H-pyrazolo[3,4-b]pyridin-5-yl)thieno[2,3-b]pyridin-2-yl)(4-oxa-7-azaspiro[2.5]octan-7-yl)methanone] | 0.712 nM
4 | C[C@@H]1COCCN1C(=O)c1cc2ccc(-c3ccc(=O)[nH]c3)nc2s1 [Compound B48R, 5-(2-(((3R)-3-methyl-4-morpholinyl)carbonyl)thieno[2,3-b]pyridin-6-yl)-2(1H)-pyridinone] | 1030 nM
5 | C[C@H]1COCCN1C(=O)c1cc2ccc(-c3ccc(=O)[nH]c3)nc2s1 [Compound B48S, 5-(2-(((3S)-3-methyl-4-morpholinyl)carbonyl)thieno[2,3-b]pyridin-6-yl)-2(1H)-pyridinone] | 986 nM
6 | O=C(c1cc2ccc(-c3ccc4ncccc4c3)nc2s1)N1CCOCC1 [Compound B49, 4-morpholinyl(6-(6-quinolinyl)thieno[2,3-b]pyridin-2-yl)methanone] | 77.8 nM
7 | Cn1cnc2ncc(-c3ccc4cc(C(=O)N5CCOCC5)sc4n3)cc21 [Compound B50, (6-(1-methyl-1H-imidazo[4,5-b]pyridin-6-yl)thieno[2,3-b]pyridin-2-yl)(4-morpholinyl)methanone] | 2.64 nM
8 | Cn1cc2cc(-c3ccc4cc(C(=O)N5CCOCC56COC6)sc4n3)cnc2n1 [Compound B51, 2,8-dioxa-5-azaspiro[3.5]nonan-5-yl(6-(2-methyl-2H-pyrazolo[3,4-b]pyridin-5-yl)thieno[2,3-b]pyridin-2-yl)methanone] | 340 nM
9 | Cn1cc2cc(-c3ccc4cc(C(=O)N5CCOC6CC65)sc4n3)cnc2n1 (stereo not drawn) [Compound B53, (6-(2-methyl-2H-pyrazolo[3,4-b]pyridin-5-yl)thieno[2,3-b]pyridin-2-yl)(2-oxa-5-azabicyclo[4.1.0]heptan-5-yl)methanone] | 1.81 nM
10 | Cn1nnc2cc(-c3ccc4cc(C(=O)N5CCOCC5)sc4n3)cnc21 [Compound B54, (6-(3-methyl-3H-[1,2,3]triazolo[4,5-b]pyridin-6-yl)thieno[2,3-b]pyridin-2-yl)(4-morpholinyl)methanone] | 16.1 nM
11 | C[C@H]1COCCN1C(=O)c1cc2ccc(-c3ccc4ncccc4c3)nc2s1 [Compound B55S, ((3S)-3-methyl-4-morpholinyl)(6-(6-quinolinyl)thieno[2,3-b]pyridin-2-yl)methanone] | 144 nM
12 | O=C(c1cc2ccc(-c3cnc4nccnc4c3)nc2s1)N1CCOCC1 [Compound B56, 4-morpholinyl(6-(pyrido[2,3-b]pyrazin-7-yl)thieno[2,3-b]pyridin-2-yl)methanone] | 5.91 nM
13 | C[C@H]1COCCN1C(=O)c1cc2ccc(-c3cnc4nccnc4c3)nc2s1 [Compound B57S, ((3S)-3-methyl-4-morpholinyl)(6-(pyrido[2,3-b]pyrazin-7-yl)thieno[2,3-b]pyridin-2-yl)methanone] | 10.3 nM
14 | Cn1ccc2cc(-c3ccc4cc(C(=O)N5CCOCC5)sc4n3)cnc2c1=O [Compound B58, 7-methyl-3-(2-(4-morpholinylcarbonyl)thieno[2,3-b]pyridin-6-yl)-1,7-naphthyridin-8(7H)-one] | 8.15 nM
15 | Cn1cc2cc(-c3ccc4cc(C(=O)N5CCOCC56CCC6)sc4n3)cnc2n1 [Compound B59, (6-(2-methyl-2H-pyrazolo[3,4-b]pyridin-5-yl)thieno[2,3-b]pyridin-2-yl)(8-oxa-5-azaspiro[3.5]nonan-5-yl)methanone] | 46.4 nM
16 | C[C@@H]1COCCN1C(=O)c1cc2ccc(-c3cnc4nccnc4c3)nc2s1 [Compound B60R, ((3R)-3-methyl-4-morpholinyl)(6-(pyrido[2,3-b]pyrazin-7-yl)thieno[2,3-b]pyridin-2-yl)methanone] | 10.6 nM
17 | C[C@@H]1COCCN1C(=O)c1cc2ccc(-c3ccc4ncccc4c3)nc2s1 [Compound B61R, ((3R)-3-methyl-4-morpholinyl)(6-(6-quinolinyl)thieno[2,3-b]pyridin-2-yl)methanone] | 189 nM
18 | C[C@@H]1COCCN1C(=O)c1cc2ccc(-c3cnc4c(=O)n(C)ccc4c3)nc2s1 [Compound B62R, 7-methyl-3-(2-(((3R)-3-methyl-4-morpholinyl)carbonyl)thieno[2,3-b]pyridin-6-yl)-1,7-naphthyridin-8(7H)-one] | 4260 nM
19 | C[C@H]1COCCN1C(=O)c1cc2ccc(-c3cnc4c(=O)n(C)ccc4c3)nc2s1 [Compound B62S, 7-methyl-3-(2-(((3S)-3-methyl-4-morpholinyl)carbonyl)thieno[2,3-b]pyridin-6-yl)-1,7-naphthyridin-8(7H)-one] | 39.2 nM
20 | C[C@@H]1COCCN1C(=O)c1cc2ccc(-c3cnc4ncn(C)c4c3)nc2s1 [Compound B63R, (6-(1-methyl-1H-imidazo[4,5-b]pyridin-6-yl)thieno[2,3-b]pyridin-2-yl)((3R)-3-methyl-4-morpholinyl)methanone] | 5.17 nM

More lines, now with the values ahead:

Row | IC50 | SMILES
21 | 5.68 nM | C[C@H]1COCCN1C(=O)c1cc2ccc(-c3cnc4ncn(C)c4c3)nc2s1 [Compound B63S, (6-(1-methyl-1H-imidazo[4,5-b]pyridin-6-yl)thieno[2,3-b]pyridin-2-yl)((3S)-3-methyl-4-morpholinyl)methanone]
22 | 16 nM | Cn1nccc1-c1nc(-c2cnc(=O)[nH]c2)nc2sc(C(=O)N3CCC(F)(F)CC3)cc12 [Compound C38, 5-(6-((4,4-difluoro-1-piperidinyl)carbonyl)-4-(1-methyl-1H-pyrazol-5-yl)thieno[2,3-d]pyrimidin-2-yl)-2(1H)-pyrimidinone]
23 | 1.38 nM | Cn1cc2cc(-c3cnc4cc(C(=O)N5CCC(F)(F)CC5)sc4n3)cnc2n1 [Compound C39]
24 | 0.726 nM | Cn1cc2cc(-c3cnc4sc(C(=O)N5CCC(F)(F)CC5)cc4n3)cnc2n1 [Compound C40, (4,4-difluoro-1-piperidinyl)(2-(2-methyl-2H-pyrazolo[3,4-b]pyridin-5-yl)thieno[2,3-b]pyrazin-6-yl)methanone]
25 | 0.429 nM | Cn1cc2cc(-c3ccc4sc(C(=O)N5CCC(F)(F)CC5)cc4n3)cnc2n1 [Compound C41, (4,4-difluoro-1-piperidinyl)(5-(2-methyl-2H-pyrazolo[3,4-b]pyridin-5-yl)thieno[3,2-b]pyridin-2-yl)methanone]
26 | 0.394 nM | Cn1cc2cc(-c3ccc4sc(C(=O)N5CCCCC5)cc4n3)cnc2n1 [Compound C42, (5-(2-methyl-2H-pyrazolo[3,4-b]pyridin-5-yl)thieno[3,2-b]pyridin-2-yl)(1-piperidinyl)methanone]
27 | 0.375 nM | Cn1cc2cc(-c3ccc4sc(C(=O)N5CCCC(F)(F)C5)cc4n3)cnc2n1 [Compound C43, (3,3-difluoro-1-piperidinyl)(5-(2-methyl-2H-pyrazolo[3,4-b]pyridin-5-yl)thieno[3,2-b]pyridin-2-yl)methanone]
28 | 4.51 nM | Cn1cc2cc(-c3ccc4sc(C(=O)N5CCOCC5)cc4n3)cnc2n1 [Compound C44, (5-(2-methyl-2H-pyrazolo[3,4-b]pyridin-5-yl)thieno[3,2-b]pyridin-2-yl)(4-morpholinyl)methanone]
29 | 0.679 nM | Cn1cc2cc(-c3ccc4sc(C(=O)N5CCCCC5)c(N)c4n3)cnc2n1 [Compound C45, (3-amino-5-(2-methyl-2H-pyrazolo[3,4-b]pyridin-5-yl)thieno[3,2-b]pyridin-2-yl)(1-piperidinyl)methanone]
30 | 20.1 nM | Cn1cc2cc(-c3ccc4sc(C(=O)N5CCOCC5)c(N)c4n3)cnc2n1 [Compound C46, (3-amino-5-(2-methyl-2H-pyrazolo[3,4-b]pyridin-5-yl)thieno[3,2-b]pyridin-2-yl)(4-morpholinyl)methanone]
31 | 1.63 nM | Cn1cc2cc(-c3ccc4sc(C(=O)N5CCCC(F)(F)C5)c(N)c4n3)cnc2n1 [Compound C47, (3-amino-5-(2-methyl-2H-pyrazolo[3,4-b]pyridin-5-yl)thieno[3,2-b]pyridin-2-yl)(3,3-difluoro-1-piperidinyl)methanone]
32 | 3.53 nM | Cn1cc2cc(-c3ccc4sc(C(=O)N5CCC(F)(F)CC5)c(N)c4n3)cnc2n1 [Compound C48, (3-amino-5-(2-methyl-2H-pyrazolo[3,4-b]pyridin-5-yl)thieno[3,2-b]pyridin-2-yl)(4,4-difluoro-1-piperidinyl)methanone]
33 | 1.67 nM | Cn1cc2cc(-c3nc(C4CC4)c4sc(C(=O)N5CCOCC5)cc4n3)cnc2n1 [Compound C49, (4-cyclopropyl-2-(2-methyl-2H-pyrazolo[3,4-b]pyridin-5-yl)thieno[3,2-d]pyrimidin-6-yl)(4-morpholinyl)methanone]
